Converted amounts (≈) assume the structure as drawn.
What was measured:
[1] = target: T1, cytochrome P450 2C8-isoenzyme (Homo sapiens, UniProt P10632); test: Inhibition of CYP-2C8 (amodiaquine deethylation, human liver microsomes); assay type: in vitro ADME; conditions: human liver microsomes 0.05 mg/mL, amodiaquine 1 μM, 37° C.
T1 construct: is assayed at 37° C. with human liver microsomes; from tissue; host or cells: human liver microsomes
T1 sequence (P10632 1-490): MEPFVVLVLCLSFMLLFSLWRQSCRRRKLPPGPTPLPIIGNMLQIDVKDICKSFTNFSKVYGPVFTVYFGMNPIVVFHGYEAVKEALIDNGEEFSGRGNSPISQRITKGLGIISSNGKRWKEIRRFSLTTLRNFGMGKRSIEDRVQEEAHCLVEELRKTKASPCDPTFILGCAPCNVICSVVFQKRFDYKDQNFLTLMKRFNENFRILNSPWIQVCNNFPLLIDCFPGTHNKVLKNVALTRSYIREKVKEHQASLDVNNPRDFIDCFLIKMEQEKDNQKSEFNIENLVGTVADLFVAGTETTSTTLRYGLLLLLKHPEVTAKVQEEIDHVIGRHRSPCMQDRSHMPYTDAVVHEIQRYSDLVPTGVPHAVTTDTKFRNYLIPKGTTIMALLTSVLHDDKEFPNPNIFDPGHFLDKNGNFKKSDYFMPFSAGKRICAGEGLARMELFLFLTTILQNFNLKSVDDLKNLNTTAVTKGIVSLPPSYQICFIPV
Procedure: All assays are carried out on a robotic system in 96 well plates. The final incubation volume contains TRIS buffer (0.1 M), MgCl2 (5 mM), human liver microsomes (0.05 mg/mL), amodiaquine (1 μM) and the test compound at five different concentrations or no compound (high control) in duplicate (e.g. highest concentration 10-50 μM with subsequent serial 1:4 dilutions). Following a short preincubation period, reactions are started with the cofactor (NADPH, 1 mM) and stopped by cooling the incubation down to 8° C. and subsequently by addition of one volume of acetonitrile. An internal standard solution—the stable isotope d5-desethylamodiaquine—is added after quenching of incubations. Peak area analyte (=metabolite formed) and internal standard is determined by LC-MS/MS. The resulting peak area ratio analyte to internal standard in these incubations is compared to a control activity containing no test compound. Within each of the assay runs, the IC50 of a positive control inhibitor (Montelukast) is determined. Experimental IC50 values are calculated by least square regression according to the following equation: % control activity=(100% control activity/(1+(I/IC50)S))−B with I=inhibitor concentration; S=slope factor; B=background activity (lower plateau of the inhibition curve) If the inhibition of the reaction is already >50% at the lowest concentration of the test compound, the IC50 is assigned “<lowest concentration tested” (usually <0.4 μM). If the inhibition of the reaction is still <50% at the highest concentration of the test compound, the IC50 is assigned “>highest concentration tested” (usually >50 μM).

[2] = target: T2, cytochrome P450 2C9-isoenzyme (Homo sapiens, UniProt P11712); test: Inhibition of CYP-2C9 (diclofenac hydroxylation, human liver microsomes); assay type: in vitro ADME; conditions: human liver microsomes 0.1 mg/mL, diclofenac 10 μM, 37° C.
T2 construct: is assayed at 37° C. with human liver microsomes; from tissue; host or cells: human liver microsomes
Procedure: All assays are carried out on a robotic system in 96 well plates. The final incubation volume contains TRIS buffer (0.1 M), MgCl2 (5 mM), human liver microsomes (0.1 mg/mL), diclofenac (10 μM) and the test compound at five different concentrations or no compound (high control) in duplicate (e.g. highest concentration 10-50 μM with subsequent serial 1:4 dilutions). Following a short preincubation period, reactions are started with the cofactor (NADPH, 1 mM) and stopped by cooling the incubation down to 8° C. and subsequently by addition of one volume of acetonitrile. An internal standard solution—the stable isotope 13C6-hydroxydiclofenac—is added after quenching of incubations. Peak area analyte (=metabolite formed) and internal standard is determined by LC-MS/MS. The resulting peak area ratio analyte to internal standard in these incubations is compared to a control activity containing no test compound. Within each of the assay runs, the IC50 of a positive control inhibitor (sulfaphenazole) is determined. Experimental IC50 values are calculated by least square regression according to the following equation: % control activity=(100% control activity/(1+(I/IC50)S)))−B with I=inhibitor concentration S=slope factor B=background activity (lower plateau of the inhibition curve) If the inhibition of the reaction is already >50% at the lowest concentration of the test compound, the IC50 is assigned “<lowest concentration tested” (usually <0.4 μM). If the inhibition of the reaction is still <50% at the highest concentration of the test compound, the IC50 is assigned “>highest concentration tested” (usually >50 μM).

human GPR40 receptor = human GPR40 receptor (Homo sapiens, UniProt O14842); test: IP1 accumulation measurements using the IPOne assay system; assay type: cell-based; conditions: 1321N1 cells stably expressing human GPR40; 1 h stimulation at 37° C.
Procedure: IP1 accumulation measurements using the IPOne assay system—1321N1 cells stably expressing human GPR40 receptor (Euroscreen, Belgium) are seeded 24 h before the assay in white 384-well plates in culture medium containing 10% FCS, 1% Na-Pyruvate and 400 μg/mL G418. IP1 is assayed according to the manufacturer's description (Cisbio Bioassays, France). In brief, the assay is started by substitution of the culture medium by stimulation buffer (Hepes 10 mM, CaCl2 1 mM, MgCl2 0.5 mM, KCl 4.2 mM, NaCl 146 mM, glucose 5.5 mM and LiCl 50 mM, pH 7.4). Cells are stimulated for 1 h at 37° C., 5% CO2 by addition of the compounds that are diluted in stimulation buffer containing LiCl. Assays are stopped by adding HTRF-conjugates (IP1-d2 and Anti-IP1 cryptate Tb) and lysis buffer, provided by the manufacturer. After an incubation time of 1 h at room temperature plates are measured using an EnVision™, Perkin Elmer. The obtained fluorescence ratios at 665/615 […] are then used to calculate the pEC50 values using Assay Explorer 3.3 Software (Accelrys, Inc.) by interpolation using an IP1 reference curve and subsequent sigmoidal curve fitting allowing for a variable hill slope.

[3] = Aqueous solubility from DMSO stock, LC-UV; assay type: physicochemical; conditions: aqueous buffer, kinetic from dmso stock; buffer pH 2.2, 24 h shaking, 2.5% DMSO
Procedure: The aqueous solubility of the compounds of the invention is determined by comparing the amount dissolved in buffer to the amount in an acetonitrile/water (1/1) solution. Starting from a 10 mM DMSO stock solution aliquots are diluted with acetonitrile/water (1/1) or buffer, respectively. After 24 h of shaking, the solutions are filtrated and analyzed by LC-UV. The amount dissolved in buffer is compared to the amount in the acetonitrile solution. Solubility is usually being measured from 0.001 to 0.125 mg/mL at a DMSO concentration of 2.5%. If more than 90% of the compound is dissolved in buffer, the value is marked with “>”.

human GPR40 receptor, sequence (O14842 whole entry): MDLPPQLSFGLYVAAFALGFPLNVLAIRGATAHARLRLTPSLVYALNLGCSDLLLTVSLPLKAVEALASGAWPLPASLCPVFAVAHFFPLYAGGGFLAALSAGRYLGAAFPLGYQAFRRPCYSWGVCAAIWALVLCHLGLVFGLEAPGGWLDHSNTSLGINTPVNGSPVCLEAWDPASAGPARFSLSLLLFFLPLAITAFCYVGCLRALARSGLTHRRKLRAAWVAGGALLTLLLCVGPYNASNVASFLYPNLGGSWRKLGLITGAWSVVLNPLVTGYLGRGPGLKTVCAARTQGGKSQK
T2 sequence (P11712 whole entry): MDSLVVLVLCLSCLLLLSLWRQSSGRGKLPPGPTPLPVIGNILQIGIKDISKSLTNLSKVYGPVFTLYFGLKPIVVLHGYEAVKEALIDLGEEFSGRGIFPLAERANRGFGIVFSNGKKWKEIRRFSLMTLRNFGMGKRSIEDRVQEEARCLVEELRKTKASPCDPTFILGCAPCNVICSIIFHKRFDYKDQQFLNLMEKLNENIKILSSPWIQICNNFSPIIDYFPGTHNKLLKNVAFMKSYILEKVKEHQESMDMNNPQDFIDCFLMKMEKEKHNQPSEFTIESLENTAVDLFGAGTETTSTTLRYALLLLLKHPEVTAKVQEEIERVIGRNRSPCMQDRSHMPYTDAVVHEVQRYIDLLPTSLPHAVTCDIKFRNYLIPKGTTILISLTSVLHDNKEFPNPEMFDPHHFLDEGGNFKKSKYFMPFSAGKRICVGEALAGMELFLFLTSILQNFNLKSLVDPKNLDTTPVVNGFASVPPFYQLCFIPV

SMILES	IC50 [1] [µM]	IC50 [2] [µM]	EC50 (human GPR40 receptor) [nM]	solubility at 24 h [3] [µg/mL]
Cc1cc(OCCC(C)(C)O)cc(C)c1-c1cccc2c1CC[C@H]2Oc1ccc2c(c1)OC[C@H]2CC(=O)O [7 (WO 2013/144098), reference compound]	5	> 10		
Cc1cc(OCCC(C)(C)O)cc(C)c1-c1ccc(F)c2c1CC[C@H]2Nc1cnc2c(c1)OCC2CC(=O)O (stereo partly drawn) [Example 1, 2-(6-{[(1R)-7-Fluoro-4-[4-(3-hydroxy-3-methylbutoxy)-2,6-dimethylphenyl]-2,3-dihydro-1H-inden-1-yl]amino}-2H,3H-furo[3,2-b]pyridin-3-yl)acetic acid]	17	> 50	57	
Cc1cc(OCC(C)(C)O)cc(C)c1-c1cccc2c1CC[C@H]2Nc1cnc2c(c1)OCC2CC(=O)O (stereo partly drawn) [Example 118, 2-(6-{[(1R)-4-[4-(2-Hydroxy-2-methylpropoxy)-2,6-dimethylphenyl]-2,3-dihydro-1H-inden-1-yl]amino}-2H,3H-furo[3,2-b]pyridin-3-yl)acetic acid]	> 50	> 50	158	66 (≈ 131 µM)
Cc1cc(OC2CCOCC2)cc(C)c1-c1cccc2c1CC[C@H]2Nc1cnc2c(c1)OCC2CC(=O)O (stereo partly drawn) [Example 119, 2-(6-{[(1R)-4-[2,6-Dimethyl-4-(oxan-4-yloxy)phenyl]-2,3-dihydro-1H-inden-1-yl]amino}-2H,3H-furo[3,2-b]pyridin-3-yl)acetic acid]	41	> 50	90	16 (≈ 31.1 µM)
Cc1cc(-c2ccn(C)c(=O)c2)cc(C)c1-c1cccc2c1CC[C@H]2Nc1cnc2c(c1)OCC2CC(=O)O (stereo partly drawn) [Example 120, 2-(6-{[(1R)-4-[2,6-Dimethyl-4-(1-methyl-2-oxo-1,2-dihydropyridin-4-yl)phenyl]-2,3-dihydro-1H-inden-1-yl]amino}-2H,3H-furo[3,2-b]pyridin-3-yl)acetic acid]	12	> 50	52	29 (≈ 55.6 µM)
Cc1cc(-c2ccc(=O)n(C)c2)cc(C)c1-c1cccc2c1CC[C@H]2Nc1cnc2c(c1)OCC2CC(=O)O (stereo partly drawn) [Example 121, 2-(6-{[(1R)-4-[2,6-Dimethyl-4-(1-methyl-6-oxo-1,6-dihydropyridin-3-yl)phenyl]-2,3-dihydro-1H-inden-1-yl]amino}-2H,3H-furo[3,2-b]pyridin-3-yl)acetic acid]	29	> 50	61	51 (≈ 97.8 µM)
Cc1cc(-c2nnn(CC(C)(C)O)n2)cc(C)c1-c1cccc2c1CC[C@H]2Nc1cnc2c(c1)OCC2CC(=O)O (stereo partly drawn) [Example 122, 2-(6-{[(1R)-4-{4-[2-(2-Hydroxy-2-methylpropyl)-2H-1,2,3,4-tetrazol-5-yl]-2,6-dimethylphenyl}-2,3-dihydro-1H-inden-1-yl]amino}-2H,3H-furo[3,2-b]pyridin-3-yl)acetic acid]	32	> 50	24	45 (≈ 81.1 µM)
Cc1cc(OCC(C)(C)C#N)cc(C)c1-c1cccc2c1CC[C@H]2Nc1cnc2c(c1)OCC2CC(=O)O (stereo partly drawn) [Example 123, 2-(6-{[(1R)-4-[4-(2-Cyano-2,2-dimethylethoxy)-2,6-dimethylphenyl]-2,3-dihydro-1H-inden-1-yl]amino}-2H,3H-furo[3,2-b]pyridin-3-yl)acetic acid]	9	28	153	< 1
CCc1cccc(CC)c1-c1cccc2c1CC[C@H]2Nc1cnc2c(c1)OCC2CC(=O)O (stereo partly drawn) [Example 124, 2-(6-{[(1R)-4-(2,6-Diethylphenyl)-2,3-dihydro-1H-inden-1-yl]amino}-2H,3H-furo[3,2-b]pyridin-3-yl)acetic acid]	9	49	75	6 (≈ 13.6 µM)
O=C(O)CC1COc2cc(N[C@@H]3CCc4c(-c5ccccc5C(F)(F)F)cccc43)cnc21 (stereo partly drawn) [Example 125, 2-(6-{[(1R)-4-[2-(Trifluoromethyl)phenyl]-2,3-dihydro-1H-inden-1-yl]amino}-2H,3H-furo[3,2-b]pyridin-3-yl)acetic acid]	21	47	693	22 (≈ 48.4 µM)
Cc1cc(C(=O)N(C)C)cc(C)c1-c1cccc2c1CC[C@H]2Nc1cnc2c(c1)OCC2CC(=O)O (stereo partly drawn) [Example 126, 2-(6-{[(1R)-4-[4-(Dimethylcarbamoyl)-2,6-dimethylphenyl]-2,3-dihydro-1H-inden-1-yl]amino}-2H,3H-furo[3,2-b]pyridin-3-yl)acetic acid]	37	> 50	1870	79 (≈ 163 µM)
COc1cc(F)c(-c2cccc3c2CC[C@H]3Nc2cnc3c(c2)OCC3CC(=O)O)c(F)c1 (stereo partly drawn) [Example 127, 2-(6-{[(1R)-4-(2,6-Difluoro-4-methoxyphenyl)-2,3-dihydro-1H-inden-1-yl]amino}-2H,3H-furo[3,2-b]pyridin-3-yl)acetic acid]	27	> 50	1240	30 (≈ 66.3 µM)
Cc1ccc(Cl)c(-c2cccc3c2CC[C@H]3Nc2cnc3c(c2)OCC3CC(=O)O)c1Cl (stereo partly drawn) [Example 128, 2-(6-{[(1R)-4-(2,6-dichloro-3-methylphenyl)-2,3-dihydro-1H-inden-1-yl]amino}-2H,3H-furo[3,2-b]pyridin-3-yl)acetic acid]	14	> 50	126	1 (≈ 2.13 µM)
N#Cc1cccc(C#N)c1-c1cccc2c1CC[C@H]2Nc1cnc2c(c1)OCC2CC(=O)O (stereo partly drawn) [Example 130, 2-(6-{[(1R)-4-(2,6-Dicyanophenyl)-2,3-dihydro-1H-inden-1-yl]amino}-2H,3H-furo[3,2-b]pyridin-3-yl)acetic acid]	> 50	> 50	> 10000	84 (≈ 192 µM)

— patent publication US20180354962A1, “[{[2,3-Dihydro-1H-inden-1-yl]amino}-2H,3H-furo[3,2-b]pyridin-3-yl]acetic acids, pharmaceutical compositions and uses thereof” (Boehringer Ingelheim International GmbH, priority 2015, published 2018)
